{"source": "patent US6720346B2", "about": "“Thiazole benzamide derivatives and pharmaceutical compositions for inhibiting cell proliferation” (Agouron Pharmaceuticals, Inc., priority 2001, dated 2004)", "key": {"CDK2/cyclin A": {"biological_target": "T1, CDK2/cyclin A (Homo sapiens, UniProt P24941)", "T1 construct": "made in house; host or cells: CDK2: insect cells (baculovirus); cyclin A: E. coli", "experiment": "Inhibition of CDK2/cyclin A retinoblastoma kinase activity (Ki; % inhibition)", "type": "biochemical", "details": "for Ki: apparent Ki, CDK2/cyclin A, Rb substrate", "how_it_was_run": "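Radiometric filter assay of CDK2/proteolyzed cyclin A (baculovirus-expressed human CDK2, 10 or 19 nM) phosphorylating an Rb fragment with 25 μM [³²P/³³P]ATP in pH 7.4 HEPES, 2% DMSO, at 30 °C for 60 or 75 min under initial-rate conditions. Library compounds screened at 30 nM for % inhibition; apparent Ki from concentration series fit to competitive or tight-binding inhibition equations.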"}, "human CDK4/cyclin D3": {"biological_target": "T2, human CDK4/cyclin D3 (Homo sapiens, UniProt P11802)", "T2 construct": "made in house; host or cells: insect cells co-infected with baculovirus vectors", "T2 sequence (P11802 whole entry, the tested form may be a part)": "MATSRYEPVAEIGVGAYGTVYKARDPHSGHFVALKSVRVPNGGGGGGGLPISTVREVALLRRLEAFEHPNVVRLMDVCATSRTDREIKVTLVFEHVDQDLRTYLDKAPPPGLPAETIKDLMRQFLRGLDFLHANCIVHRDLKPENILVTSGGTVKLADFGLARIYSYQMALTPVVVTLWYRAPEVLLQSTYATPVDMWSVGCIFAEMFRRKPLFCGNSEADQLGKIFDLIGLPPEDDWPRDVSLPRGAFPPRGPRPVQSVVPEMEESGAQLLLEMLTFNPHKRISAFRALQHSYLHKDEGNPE", "T2 sequence (P30281 1-264 partner limits assumed)": "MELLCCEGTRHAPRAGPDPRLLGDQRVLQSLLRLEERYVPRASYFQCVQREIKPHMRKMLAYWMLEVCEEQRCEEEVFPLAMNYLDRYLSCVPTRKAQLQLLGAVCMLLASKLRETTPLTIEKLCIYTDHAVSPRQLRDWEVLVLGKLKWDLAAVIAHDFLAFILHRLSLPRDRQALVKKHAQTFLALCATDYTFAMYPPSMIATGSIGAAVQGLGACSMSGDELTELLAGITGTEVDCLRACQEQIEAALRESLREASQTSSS", "experiment": "Inhibition of CDK4/cyclin D retinoblastoma kinase activity (Ki; % inhibition)", "type": "biochemical", "details": "for Ki: apparent Ki, CDK4/cyclin D3, Rb substrate", "how_it_was_run": "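Insect-cell-expressed CDK4 with truncated cyclin D3 (1-264), 5 nM, phosphorylating His-tagged Rb fragment (386-928) with 25 μM [32/33P]ATP at pH 7.4, 30 °C, 20 min (60 min for tight binders). Filter capture, phosphorimager read; % inhibition at 30 nM compound, Ki from competitive or tight-binding fits.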"}, "HCT-116 cell line": {"tested_on": "HCT-116 cell line", "experiment": "Inhibition of cell growth, MTT tetrazolium salt assay", "type": "cell-based", "details": "for IC50: Homo sapiens, HCT-116, 120 h, MTT, three to five days", "how_it_was_run": "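HCT-116 cells in McCoy's 5A were dosed 4 h after plating with compounds in 0.5% DMSO and grown 3–5 days at 37 °C. Then 0.2 mg/mL MTT was added for 4 h and formazan absorbance read at 540 nm. IC50/IC90 came from semi-log plots against DMSO-only controls.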"}, "[1]": {"details": "HCT-116 cells, 0.25 μM compound"}}, "note": "Structures can show the parent of a compound that is named as a salt.", "data": [{"smiles": "CN1CCC[C@H]1CNC(=O)c1ccc(Nc2nc(N)c(C(=O)c3ccccc3F)s2)cc1", "note": "[Example A67, 4-{4-Amino-5-(2-fluoro-benzoyl)-thiazol-2-ylamino}-N-(1-methyl-pyrrolidin-2S-ylmethyl)-benzamide Trifluoroacetic Acid Salt]", "values": [{"measurement": "Ki", "setting": "CDK2/cyclin A", "result": 13, "unit": "nM"}, {"measurement": "Ki", "setting": "human CDK4/cyclin D3", "result": 88, "unit": "nM"}, {"measurement": "IC50", "setting": "HCT-116 cell line", "result": 77, "unit": "nM"}]}, {"smiles": "Nc1nc(Nc2ccc(C(=O)N3CCCC(O)C3)cc2)sc1C(=O)c1c(F)cccc1F", "note": "(stereo not shown) [Example G49]", "values": [{"measurement": "CDK2 % Inhibition at 0.03 μM", "setting": "CDK2/cyclin A; at 0.03 μM", "result": 7, "unit": "%"}, {"measurement": "CDK4 % Inhibition at 0.03 μM", "setting": "human CDK4/cyclin D3; at 0.03 μM", "result": 4, "unit": "%"}, {"measurement": "HCT-116 % Inhibition at 0.25 μM", "setting": "HCT-116 cell line; HCT-116, at 0.25 μM", "result": 57, "unit": "%"}]}, {"smiles": "Nc1nc(Nc2ccc(C(=O)NCCN3CC=CC3)cc2)sc1C(=O)c1c(F)cccc1F", "note": "[Example A45, 4-[4-Amino-5-(2,6-difluoro-benzoyl)-thiazol-2-ylamino]-N-[2-(2,5-dihydro-pyrrol-1-yl)-ethyl]-benzamide Dihydrochloride Salt]", "values": [{"measurement": "Ki", "setting": "CDK2/cyclin A", "result": 48, "unit": "nM"}, {"measurement": "Ki", "setting": "human CDK4/cyclin D3", "result": 7, "unit": "nM"}, {"measurement": "IC50", "setting": "HCT-116 cell line", "result": 86, "unit": "nM"}]}, {"smiles": "Nc1nc(Nc2ccc(C(=O)NCCO)cc2)sc1C(=O)c1c(F)cccc1F", "note": "[Example G326]", "values": [{"measurement": "CDK2 % Inhibition at 0.03 μM", "setting": "CDK2/cyclin A; 0.03 μM compound", "result": 12, "unit": "%"}, {"measurement": "CDK4 % Inhibition at 0.03 μM", "setting": "human CDK4/cyclin D3; 0.03 μM compound", "result": 22, "unit": "%"}, {"measurement": "HCT-116 % Inhibition at 0.1 μM", "setting": "HCT-116 cell line; HCT-116 cells, 0.1 μM compound", "result": 11, "unit": "%"}, {"measurement": "HCT-116 % Inhibition at 0.25 μM", "setting": "HCT-116 cell line; [1]", "result": 13, "unit": "%"}]}, {"smiles": "CCN(CC)CCN1CCN(C(=O)c2ccc(Nc3nc(N)c(C(=O)c4c(F)cccc4F)s3)cc2)CC1", "note": "[Example G374]", "values": [{"measurement": "CDK2 % Inhibition at 0.03 μM", "setting": "CDK2/cyclin A; 0.03 μM compound", "result": "−10", "unit": "%"}, {"measurement": "CDK4 % Inhibition at 0.03 μM", "setting": "human CDK4/cyclin D3; 0.03 μM compound", "result": 13, "unit": "%"}, {"measurement": "HCT-116 % Inhibition at 0.1 μM", "setting": "HCT-116 cell line; HCT-116 cells, 0.1 μM compound", "result": 21, "unit": "%"}, {"measurement": "HCT-116 % Inhibition at 0.25 μM", "setting": "HCT-116 cell line; [1]", "result": 41, "unit": "%"}]}, {"smiles": "Nc1ccccc1CNC(=O)c1ccc(Nc2nc(N)c(C(=O)c3c(F)cccc3F)s2)cc1", "note": "[Example G384]", "values": [{"measurement": "CDK2 % Inhibition at 0.03 μM", "setting": "CDK2/cyclin A; 0.03 μM compound", "result": 45, "unit": "%"}, {"measurement": "CDK4 % Inhibition at 0.03 μM", "setting": "human CDK4/cyclin D3; 0.03 μM compound", "result": 23, "unit": "%"}, {"measurement": "HCT-116 % Inhibition at 0.1 μM", "setting": "HCT-116 cell line; HCT-116 cells, 0.1 μM compound", "result": 38, "unit": "%"}, {"measurement": "HCT-116 % Inhibition at 0.25 μM", "setting": "HCT-116 cell line; [1]", "result": 84, "unit": "%"}]}, {"smiles": "Nc1nc(Nc2ccc(C(=O)NCCCCCCO)cc2)sc1C(=O)c1c(F)cccc1F", "note": "[Example G358]", "values": [{"measurement": "CDK2 % Inhibition at 0.03 μM", "setting": "CDK2/cyclin A; 0.03 μM compound", "result": "−5", "unit": "%"}, {"measurement": "CDK4 % Inhibition at 0.03 μM", "setting": "human CDK4/cyclin D3; 0.03 μM compound", "result": 7, "unit": "%"}, {"measurement": "HCT-116 % Inhibition at 0.1 μM", "setting": "HCT-116 cell line; HCT-116 cells, 0.1 μM compound", "result": 21, "unit": "%"}, {"measurement": "HCT-116 % Inhibition at 0.25 μM", "setting": "HCT-116 cell line; [1]", "result": 55, "unit": "%"}]}, {"smiles": "CN(C)CCN1CCN(C(=O)c2ccc(Nc3nc(N)c(C(=O)c4c(F)cccc4F)s3)cc2)CC1", "note": "[Example G382]", "values": [{"measurement": "CDK2 % Inhibition at 0.03 μM", "setting": "CDK2/cyclin A; 0.03 μM compound", "result": "−17", "unit": "%"}, {"measurement": "CDK4 % Inhibition at 0.03 μM", "setting": "human CDK4/cyclin D3; 0.03 μM compound", "result": 8, "unit": "%"}, {"measurement": "HCT-116 % Inhibition at 0.1 μM", "setting": "HCT-116 cell line; HCT-116 cells, 0.1 μM compound", "result": 17, "unit": "%"}, {"measurement": "HCT-116 % Inhibition at 0.25 μM", "setting": "HCT-116 cell line; [1]", "result": 47, "unit": "%"}]}, {"smiles": "CCOC(=O)Cc1ccc(NC(=O)c2ccc(Nc3nc(N)c(C(=O)c4c(F)cccc4F)s3)cc2)cc1", "note": "[Example G130]", "values": [{"measurement": "CDK2 % Inhibition at 0.03 μM", "setting": "CDK2/cyclin A; at 0.03 μM", "result": 1, "unit": "%"}, {"measurement": "CDK4 % Inhibition at 0.03 μM", "setting": "human CDK4/cyclin D3; at 0.03 μM", "result": 11, "unit": "%"}, {"measurement": "HCT-116 % Inhibition at 0.1 μM", "setting": "HCT-116 cell line; HCT-116, at 0.1 μM", "result": 0, "unit": "%"}, {"measurement": "HCT-116 % Inhibition at 0.25 μM", "setting": "HCT-116 cell line; HCT-116, at 0.25 μM", "result": 77, "unit": "%"}]}, {"smiles": "Nc1nc(Nc2ccc(C(=O)NCCC3=CCCCC3)cc2)sc1C(=O)c1c(F)cccc1F", "note": "[Example G337]", "values": [{"measurement": "CDK2 % Inhibition at 0.03 μM", "setting": "CDK2/cyclin A; 0.03 μM compound", "result": 7, "unit": "%"}, {"measurement": "CDK4 % Inhibition at 0.03 μM", "setting": "human CDK4/cyclin D3; 0.03 μM compound", "result": 11, "unit": "%"}, {"measurement": "HCT-116 % Inhibition at 0.1 μM", "setting": "HCT-116 cell line; HCT-116 cells, 0.1 μM compound", "result": 13, "unit": "%"}, {"measurement": "HCT-116 % Inhibition at 0.25 μM", "setting": "HCT-116 cell line; [1]", "result": 52, "unit": "%"}]}, {"smiles": "CCCCC(CO)NC(=O)c1ccc(Nc2nc(N)c(C(=O)c3c(F)cccc3F)s2)cc1", "note": "(stereo not shown) [Example G329]", "values": [{"measurement": "CDK2 % Inhibition at 0.03 μM", "setting": "CDK2/cyclin A; 0.03 μM compound", "result": 10, "unit": "%"}, {"measurement": "CDK4 % Inhibition at 0.03 μM", "setting": "human CDK4/cyclin D3; 0.03 μM compound", "result": 19, "unit": "%"}, {"measurement": "HCT-116 % Inhibition at 0.1 μM", "setting": "HCT-116 cell line; HCT-116 cells, 0.1 μM compound", "result": 9, "unit": "%"}, {"measurement": "HCT-116 % Inhibition at 0.25 μM", "setting": "HCT-116 cell line; [1]", "result": 56, "unit": "%"}]}, {"smiles": "Cc1ccncc1C(=O)c1sc(Nc2ccc(C(=O)NC[C@@H]3CCCN3C)cc2)nc1N", "note": "[Example A59, 4-{4-Amino-5-[1-(4-methyl-pyridin-3-yl)methanoyl]-thiazol-2-ylamino}-N-(1-methyl-pyrrolidin-2S-ylmethyl)-benzamide Hydrochloride Salt]", "values": [{"measurement": "Ki", "setting": "CDK2/cyclin A", "result": 830, "unit": "nM"}, {"measurement": "Ki", "setting": "human CDK4/cyclin D3", "result": 97, "unit": "nM"}, {"measurement": "IC50", "setting": "HCT-116 cell line", "result": 2900, "unit": "nM"}]}, {"smiles": "Nc1nc(Nc2ccc(C(=O)NCc3cccnc3)cc2)sc1C(=O)c1c(F)cccc1F", "note": "[Example G188]", "values": [{"measurement": "CDK2 % Inhibition at 0.03 μM", "setting": "CDK2/cyclin A; at 0.03 μM", "result": 29, "unit": "%"}, {"measurement": "CDK4 % Inhibition at 0.03 μM", "setting": "human CDK4/cyclin D3; at 0.03 μM", "result": 39, "unit": "%"}, {"measurement": "HCT-116 % Inhibition at 0.1 μM", "setting": "HCT-116 cell line; HCT-116, at 0.1 μM", "result": 17, "unit": "%"}, {"measurement": "HCT-116 % Inhibition at 0.25 μM", "setting": "HCT-116 cell line; HCT-116, at 0.25 μM", "result": 51, "unit": "%"}]}, {"smiles": "CC(NC(=O)c1ccc(Nc2nc(N)c(C(=O)c3c(F)cccc3F)s2)cc1)C1CCCCC1", "note": "(stereo not shown) [Example G300]", "values": [{"measurement": "CDK2 % Inhibition at 0.03 μM", "setting": "CDK2/cyclin A; 0.03 μM compound, 0.03 µM", "result": "−18", "unit": "%"}, {"measurement": "CDK4 % Inhibition at 0.03 μM", "setting": "human CDK4/cyclin D3; 0.03 μM compound, 0.03 µM", "result": "−10", "unit": "%"}, {"measurement": "HCT-116 % Inhibition at 0.1 μM", "setting": "HCT-116 cell line; HCT-116 cells, 0.1 μM compound, 0.1 µM", "result": 18, "unit": "%"}, {"measurement": "HCT-116 % Inhibition at 0.25 μM", "setting": "HCT-116 cell line; HCT-116 cells, 0.25 μM compound, 0.25 µM", "result": 70, "unit": "%"}]}]}
